Results as given in US11110168B2, “Nanoparticles, controlled-release dosage forms, and methods for delivering an immunotherapeutic agent” (NORTH CAROLINA STATE UNIVERSITY, priority 2016, dated 2021).

Columns and labels:
[1] = In vivo retention and biodistribution after MN administration in mice bearing B16F10 melanoma; parameters: species or system mouse; settings: for Cy5.5 signal around the melanoma site (retention): MN administration, imaging day 1, day 3, day 5
Protocol: HA-NPs formulation with conjugated 1-MT and encapsulated aPD1 can improve their physicochemical properties. Therefore, the in vivo kinetics of free aPD1/1-MT and NPs following MN administration were evaluated in the mice model bearing B16F10 melanoma. The drug retention capability was tested at the tumor site after the MN administration. In vivo […] imaging was conducted at day 1, day 3 and day 5 post injection of the MN loaded with aPD1 and Cy5.5-1-MT-HA or free Cy5.5-1-MT. […] A similar pattern was observed compared to the biodistribution at the tumor site and other organs in the control group. […] The sustained high concentrations of the drugs within tumor regions as well as in peripheral circulation would enhance the immune system capability to treat not only primary tumor but also metastatic tumors in the body.
For the fluorescent NPs, Cyanine5.5 NHS ester (Lumiprobe, Cy5.5) was covalently coupled to the primary amines of the aPD1 and 1-MT. The Cy5.5 was dissolved in anhydrous DMSO immediately before use, at a concentration of 10 mg/ml. Cy5.5 and 1-MT reacted at optimal ratio of 5:1. For the conjugation with aPD1, 40 μg Cy5.5 per mg of antibody was mixed immediately. The tube was wrapped in foil and incubated at room temperature for 1 hour. The unreacted Cy5.5 was removed and the aPD1 was exchanged by gel filtration using Sephadex G-25M.

restriction enzyme HhaI = test: Digestion of DNCs by restriction enzyme HhaI, gel electrophoresis; format: biochemical; settings: treated with HhaI
Protocol: Release studies were performed at 37° C. with constant agitation in PBS+10% fetal ovine serum. PBS, MMP-9 (500 ng/mL, Sigma) or Lipase (10 000 U, Sigma) were added to samples to study the DNA and antibody release. The DNA disintegration was analyzed by agarose gel electrophoresis using 1% (w/v) agarose gel and the antibody release was determined by IgG total ELISA kit (eBioscience).
Two different control DNCs (cDNC) with a non-specific sequence were synthesized (Table 1) to verify the design.
As shown in agarose gels (FIG. 7), without HhaI treatment, these cDNCs cannot migrate in the gel as DNCs.

Molecule | Cy5.5 signal around the melanoma site (retention) [1] | biodistribution in the tumor and the major organs ([1]; Cy5.5-labeled 1-MT after MN administration) | cleavage by HhaI (gel electrophoresis) (restriction enzyme HhaI)
1-methyl-DL-tryptophan [1-MT] | little signal could be detected |  | 
Cn1cc(CC(N)C(=O)O)c2ccccc21 (racemic) [1-MT, 1-methyl-DL-tryptophan] | quickly cleaved from the patch and eliminated by the body within one day | highest accumulations in the tumor followed by the lung and liver | 
cDNC (with cutting sites, without CpG): control DNA nano-cocoon with HhaI cutting sites, without CpG (GTATTATTTCGAAATAATTTGTATTATT; 5' phosphate, chemistry not fully specified; the letters are possibly those of the target site) |  |  | readily cut into smaller homogeneous fragments
cDNCs (with CpG, without cutting sites): control DNA nano-cocoon with CpG, without HhaI cutting sites (nucleic acid, listed as DNA, chemistry not fully specified; the letters are possibly those of the target site) ATATGTCGTCGTTCGAACGACGTTATATAACGTCGTTCGAACGACGTTATATGTCGTCGTTCGAACGACGTT |  |  | resistant to cleavage by HhaI
